{
  "source": "ChEMBL document CHEMBL2424654",
  "about": "“Optimization of enzyme-based ultrasonic/microwave-assisted extraction and evaluation of antioxidant activity of orcinol glucoside from the rhizomes of Curculigo orchioides Gaertn” (Med Chem Res, 2013)",
  "assay_type_in_all_cases": "functional",
  "key": {"[1]": {"assay": "Antioxidant activity assessed as hydroxyl radical scavenging activity"}, "[2]": {"assay": "Antioxidant activity assessed as reducing power at 0.5 to 2 mg/ml"}, "[3]": {"test_system": "Radical scavenging activity", "assay": "Antioxidant activity assessed as DPPH radical scavenging activity at 2 mg/ml"}, "[4]": {"test_system": "Radical scavenging activity", "assay": "Antioxidant activity assessed as DPPH radical scavenging activity"}, "[5]": {"assay": "Antioxidant activity assessed as hydroxyl radical scavenging activity at 2 mg/ml"}, "[6]": {"assay": "Antioxidant activity assessed as superoxide anion radical scavenging activity at 2 mg/ml"}},
  "note": "The source made the active and inactive calls. No cut-off for these calls is given here.",
  "data": [
    {"compound": "Cc1cc(O)cc(O[C@@H]2O[C@H](CO)[C@@H](O)[C@H](O)[C@H]2O)c1", "values": [
      {"measurement": "Activity", "setting": "[1]", "result": "Dose-dependent effect"},
      {"measurement": "Activity", "setting": "[2]", "result": "Active"},
      {"measurement": "Activity", "setting": "[3]", "result": 69.3, "unit": "%"},
      {"measurement": "IC50", "setting": "[4]", "result": 900, "unit": "µg/mL"},
      {"measurement": "Activity", "setting": "[5]", "result": 77.5, "unit": "%"},
      {"measurement": "Activity", "setting": "[6]", "result": 70.2, "unit": "%"}
    ]}
  ]
}
